Experiments:
Format in all cases: biochemical, human
[1] = system: α1,2-L-FT of colon tumor CC9338; assay: α1,2-L-FT assay, colon tumor extract; conditions: 1 mg protein of the tissue extract
Procedure: (§1) Colon tumor tissue (CC9338) and breast tumor tissue (BC9400) were obtained during surgical procedures at Roswell Park Cancer Institute and stored frozen within 1 h at −70° C. The tissues were homogenized at 4° C. with 4 volumes of 0.1M Tris Maleate […] 0.1% NaN3 using kinematica. After adjusting the concentration of Triton X-100 to 2%, these homogenates were mixed in the cold room for 1 h using Speci-Mix (Thermolyne) and then centrifuged at 20,000 g for 1 h at 4° C. The clear fat-free supernatant was stored frozen at −20° C. until use. Aliquots of 10 μL from this extract were used in assays run in duplicates. Glycosyltransferase activity in cell lysate was determined by mixing the lysates with acceptor and radiolabeled donor (monosaccharide) under the reaction conditions detailed below, followed by separation of un-reacted donor from the radioactive product using anionic or hydrophobic chromatography. In all cases, the radioactive content of isolated products was determined by using 3a70 scintillation cocktail (Research Products International, Mount Prospect, Ill.) and a Beckman LS6500 scintillation counter. Controls for each assay contained the reaction mixture with everything except the acceptor. All assays were run in duplicate.
(§2) α1,2, α1,6-, α1,3- and α1,4-fucosyltransferase (FT) assay reactions were carried out for 2 h in a reaction mixture containing 50 mM Hepes buffer (pH 7.5), 5 mM MnCl2, 7 mM ATP, 3 mM NaN3, 3 mM synthetic acceptor or 40 μg of fetuin-based acceptor, 0.05 μCi GDP-[14C]Fuc (290 mCi/mmol) and 10 μl cell extract in a total volume of 20 μl [Chandrasekaran et al., 1996]. Sulfotransferase (Sulfo T) assay reactions took 2 h and required a mixture containing 100 mM Tris-maleate (pH 7.2), 5 mM Mg Acetate, 5 mM ATP, 10 mM NaF, 10 mM BAL, 7.5 mM acceptor, 0.5 μCi of [^35S]PAPS (specific activity 2.4 Ci/mmol) and 10 μl of cell extract in a total volume of 30 μl [Chandrasekaran et al., 2004].
(§3) Dowex-1-C1 or Sep-Pak C18 cartridges were used to isolate radiolabeled product from the reaction mixture. For GalT, GalNAc-T and FT assays, the incubation mixture was diluted with 1 ml water and passed through a 1 ml Dowex-1-C1 column [Chandrasekaran et al., 1996; Chandrasekaran et al., 2001]. The column was washed twice with 1 ml of water. The breakthrough and the water wash contained the [^14C]-galactosylated or [^14C]-fucosylated products formed with neutral acceptors. 3 ml of 0.1M NaCl was used to obtain [^14C]-fucosylated products from sialylated acceptors after water elution. For sialytransferase assays, the radioactive products from benzylglycosides were separated by hydrophobic chromatography on Sep-Pak C18 cartridge (Waters, Milford, Mass.), and elution of the product was done with 3 ml methanol [Palcic et al., 1988]. […]

LNCaP α2,3(O)ST = assay: Sialyltransferase assay with LNCaP cell extract; conditions: Table I; acceptor 7.5 mM; 100% = 30930 CPM (3-O-MeGalβ1,4GlcNAcβ1,6(Galβ1,3)GalNAcα-O-Bn)
Outline: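 LNCaP Triton X-100 extract (5 mg protein/ml; 0.1M Tris-maleate pH6.3) incubated with acceptor (typically 7.5 mM) and CMP-[9-3H]NeuAc (typically 0.2 μCi) in 0.1M Na cacodylate pH6.0, 2 h at 37 °C, in duplicate. Radioactive product separated on Dowex-1-formate, Sep-Pak C18 or Biogel P2 and counted by scintillation; blank without acceptor subtracted.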

[2] = system: α1,2-L-FT of breast tumor BC9400; assay: α1,2-L-FT assay, breast tumor extract; conditions: 1 mg protein of the tissue extract
Procedure: as §1, §2, §3

Row | SMILES | α1,2-L-FT activity: incorporation of radioactive sugar [1] [CPM × 10^−3] | Sialyltransferase activity (%) LNCaP α2,3(O)ST (LNCaP α2,3(O)ST) [%] | α1,2-L-FT activity: incorporation of radioactive sugar [2] [CPM × 10^−3]
1 | CO[C@H]1O[C@H](CO)[C@H](O)[C@H](O[C@@H]2O[C@H](CO)[C@H](O)[C@H](O[C@@H]3O[C@H](C)[C@H](O)[C@H](O)[C@H]3O)[C@H]2NC(C)=O)[C@H]1O [D-Fucβ1,3GalNAcβ1,3Galα-O-Me] | 89.8 | 9.6 | 16.2
2 | C=CCO[C@H]1O[C@H](CO)[C@H](O)[C@H](O[C@@H]2O[C@H](CO)[C@H](O)[C@H](O)[C@H]2O)[C@H]1NC(C)=O [Galβ1,3GalNAcα-O—Al] | 36.8 | 34.4 | 5.5
3 | CO[C@H]1O[C@H](CO)[C@H](O)[C@H](O[C@@H]2O[C@H](CO)[C@H](O)[C@H](O[C@@H]3O[C@H](CO)[C@H](O)[C@H](O)[C@H]3O)[C@H]2NC(C)=O)[C@H]1O [Galβ1,3GalNAcβ1,3Galα-O-Me] | 49.1 | 34.3 | 13.7
